In brackets after ≈: the same amount, converted by molar mass. Like-named read-outs stand apart in the source and are kept apart here.
Legend:
Pseudomonas species = details: in words; prior art; cited from earlier work
S. pneumoniae A-9585 = experiment: In vitro MIC, tube dilution in Nutrient Broth, overnight at 37° C.; assay type: cell-based; details: Streptococcus pneumoniae, A9585
S. pyogenes A-9604 = experiment: as above; assay type: cell-based; details: Streptococcus pyogenes, A9604
S. aureus A-9537 = experiment: as above; assay type: cell-based; details: Staphylococcus aureus
[1] = tested on: S. aureus A-9606 (Pen-res.); experiment: as above; assay type: cell-based; details: Staphylococcus aureus
[2] = tested on: S. aureus A15097 (Meth-res.); experiment: microbe, parasite or virus in culture; assay type: cell-based; details: Staphylococcus aureus
S. faecalis A20688 = experiment: In vitro MIC, tube dilution in Nutrient Broth, overnight at 37° C.; assay type: cell-based; details: Enterococcus faecalis
E. coli A15119 [3] = experiment: as above; assay type: cell-based; details: Escherichia coli
E. coli A20341-1 = experiment: as above; assay type: cell-based
P. vulgaris A21559 [4] = experiment: as above; assay type: cell-based; details: Proteus vulgaris
P. aeruginosa A-9843A [5] = experiment: as above; assay type: cell-based; details: Pseudomonas aeruginosa, A9843A
H. influenzae A-9833 = experiment: as above; assay type: cell-based; details: Haemophilus influenzae, A9833
H. influenzae A20178 = experiment: as above; assay type: cell-based; details: Haemophilus influenzae
H. influenzae A21518 = experiment: as above; assay type: cell-based; details: Haemophilus influenzae
H. influenzae A21522 = experiment: as above; assay type: cell-based; details: Haemophilus influenzae
B. fragilis A22862 = experiment: as above; assay type: cell-based; details: Bacteroides fragilis
E. cloacae A-9659 [6] = experiment: Protective effect in the intramuscular treatment of infected mice; assay type: in vivo; details: Enterobacter cloacae, A9659, im; i.m., challenge 4 × 10^6 organisms, treated 1 and 3.5 h postinfection; read-out: PD50/Treatment
Experimental: (§1) 3.5 hours (all others); 5 mice were used in each test.

E. coli A15119 [7] = experiment: as above; assay type: in vivo; details: Escherichia coli, A15119, im; i.m., challenge 6 × 10^6 organisms, treated 1 and 3.5 h postinfection; read-out: PD50/Treatment
Experimental: as §1

K. pneumoniae A-9664 [8] = experiment: as above; assay type: in vivo; details: Klebsiella pneumoniae, A9664, im; i.m., challenge 7 × 10^6 organisms, treated 1 and 3.5 h postinfection; read-out: PD50/Treatment
Experimental: as §1

M. morganii A15149 = experiment: as above; assay type: in vivo; details: Morganella morganii, A15149, im; i.m., challenge 7 × 10^5 organisms, treated 1 and 3.5 h postinfection; read-out: PD50/Treatment
Experimental: as §1

P. aeruginosa A-9843a [9] = experiment: as above; assay type: in vivo; details: Pseudomonas aeruginosa, A9843A, im, challenge 3 × 10^4 organisms, treated 0 and 2 h postinfection; read-out: PD50/Treatment
Experimental: as §1

P. aeruginosa A20481 = experiment: as above; assay type: in vivo; details: Pseudomonas aeruginosa, A20481, im; i.m., challenge 3 × 10^4 organisms, treated 0 and 2 h postinfection; read-out: PD50/Treatment
Experimental: as §1

P. aeruginosa A20599 = experiment: as above; assay type: in vivo; details: Pseudomonas aeruginosa, A20599, im; i.m., challenge 9 × 10^4 organisms, treated 0 and 2 h postinfection; read-out: PD50/Treatment
Experimental: as §1

P. rettgeri A15167-2 = experiment: as above; assay type: in vivo; details: Providencia rettgeri, A151672, im, read-out: PD50/Treatment
Experimental: as §1

P. vulgaris A21559 [10] = experiment: as above; assay type: in vivo; details: Proteus vulgaris, A21559, im; i.m., challenge 4 × 10^5 organisms, treated 0 and 2 h postinfection; read-out: PD50/Treatment
Experimental: as §1

S. aureus A-9606 = experiment: as above; assay type: in vivo; details: Staphylococcus aureus, A9606, im; i.m., challenge 1 × 10^9 organisms, treated 1 and 3.5 h postinfection; read-out: PD50/Treatment
Experimental: as §1

S. marcescens A20335 = experiment: as above; assay type: in vivo; details: Serratia marcescens, A20335, im; i.m., challenge 9 × 10^6 organisms, treated 1 and 3.5 h postinfection; read-out: PD50/Treatment
Experimental: as §1

P. mirabilis A-9900 [11] = experiment: as above; assay type: in vivo; details: Proteus mirabilis, A9900, im, read-out: PD50/Treatment
Experimental: The PD50 (dose in mg/kg required to give protection to 50% of the infected mice) is indicated.
Treatment Schedule: Mice were treated i.m. with drugs 0 and 2 hours

[12] = Blood levels in mice after intramuscular administration; assay type: in vivo; details: mouse, im, 20 mg/kg i.m.
Description: *t1/2refers to halflife in minutes
**AUC refers to the area under the curve

[13] = Urinary recovery after intramuscular administration to mice; assay type: in vivo; details: mouse, urine, im, 20 mg/kg, 20 mg/kg i.m., read-out: Urinary recovery, Percentage of Dose Recovered
Description: | a single test; 4 mice per compound.

in vivo = details: mouse
K. pneumoniae A-9664 [14] = experiment: microbe, parasite or virus in culture; details: Klebsiella pneumoniae, A9664
K. pneumoniae A20468 = experiment: microbe, parasite or virus in culture; details: Klebsiella pneumoniae
P. mirabilis A-9900 [15] = experiment: microbe, parasite or virus in culture; details: Proteus mirabilis, A9900
P. morganii A15153 = experiment: microbe, parasite or virus in culture; details: Morganella morganii
S. marcescens A20019 = experiment: microbe, parasite or virus in culture; details: Serratia marcescens
E. cloacae A-9659 [16] = experiment: microbe, parasite or virus in culture; details: Enterobacter cloacae, A9659
E. cloacae A-9656 = experiment: microbe, parasite or virus in culture; details: Enterobacter cloacae, A9656
B. fragilis A22053 = experiment: microbe, parasite or virus in culture; details: Bacteroides fragilis
B. fragilis A22863 = experiment: microbe, parasite or virus in culture; details: Bacteroides fragilis
[17] = Toxicity after intracranial administration to mice; details: mouse, in vivo

## C[C@@H](O)[C@H]1C(=O)N2C(C(=O)O)=C(SCCN)C[C@H]12 [thienamycin]
Pseudomonas species
  activity against various Pseudomonas species: notable activity

## C[C@@H](O)[C@H]1C(=O)N2C(C(=O)[O-])=C(SCC[S+]3CCCC3)C[C@H]12 [Example 1, 3-[2-(1-tetrahydrothiophenium)ethylthio]-6α-[1-(R)-hydroxyethyl]-7-oxo-1-azabicyclo[3.2.0]hept-2-ene-2-carboxylate]
S. pneumoniae A-9585
  MIC: 0.002 µg/mL (≈ 0.00582 µM)
S. pyogenes A-9604
  MIC: 0.004 µg/mL (≈ 0.0116 µM)
S. aureus A-9537; A9537, S. aureus A-9537
  MIC: 0.008 µg/mL (≈ 0.0233 µM)
S. aureus A-9537; A9537, S. aureus A-9537 +50% serum
  MIC: 0.03 µg/mL (≈ 0.0873 µM)
[1]
  MIC: 0.016 µg/mL (≈ 0.0466 µM)
[2]
  MIC: 2 µg/mL (≈ 5.82 µM)
S. faecalis A20688
  MIC: 0.5 µg/mL (≈ 1.46 µM)
E. coli A15119 [3]; A15119, E. coli A15119 (10^-2)
  MIC: 0.06 µg/mL (≈ 0.175 µM)
E. coli A15119 [3]; A15119, E. coli A15119 (10^-3)
  MIC: 0.06 µg/mL (≈ 0.175 µM)
E. coli A15119 [3]; E. coli A15119 (10^-4 dil.), read-out: MIC
  MIC: 0.03 µg/mL (≈ 0.0873 µM)
E. coli A20341-1; E. coli A20341-1 (10^-3)
  MIC: 0.03 µg/mL (≈ 0.0873 µM)
E. coli A20341-1; Escherichia coli, A203411, E. coli A20341-1 (10^-2)
  MIC: 0.06 µg/mL (≈ 0.175 µM)
E. coli A20341-1; Escherichia coli, A203411, E. coli A20341-1 (10^-4), read-out: MIC
  MIC: 0.03 µg/mL (≈ 0.0873 µM)
P. vulgaris A21559 [4]
  MIC: 0.03 µg/mL (≈ 0.0873 µM)
P. aeruginosa A-9843A [5]
  MIC: 1 µg/mL (≈ 2.91 µM)
H. influenzae A-9833
  MIC: 8 µg/mL (≈ 23.3 µM)
H. influenzae A20178
  MIC: 8 µg/mL (≈ 23.3 µM)
H. influenzae A21518
  MIC: 8 µg/mL (≈ 23.3 µM)
H. influenzae A21522
  MIC: 8 µg/mL (≈ 23.3 µM)
B. fragilis A22862
  MIC: 0.06 µg/mL (≈ 0.175 µM)
E. cloacae A-9659 [6]
  ED50: 1.3 mg/kg
E. coli A15119 [7]
  ED50: 1.6 mg/kg
K. pneumoniae A-9664 [8]
  ED50: 5 mg/kg
M. morganii A15149
  ED50: 3.3 mg/kg
P. aeruginosa A-9843a [9]
  ED50: 0.6 mg/kg
P. aeruginosa A20481
  ED50: 0.8 mg/kg
P. aeruginosa A20599
  ED50: 1.3 mg/kg
P. rettgeri A15167-2
  ED50: 8.7 mg/kg
P. vulgaris A21559 [10]
  ED50: 3.3 mg/kg
S. aureus A-9606
  ED50: 0.19 mg/kg
S. marcescens A20335
  ED50: 5 mg/kg
P. mirabilis A-9900 [11]
  ED50: 7.7 mg/kg
[12]
  AUC: 7400 ng·h/mL
  half-life: 9 min
[13]; 0-3 hours
  dose excreted at 3 h: 15.6%
[13]; 0-24 hours
  dose excreted at 24 h: 17.7 ± 2.9%
[13]; 3-6 hours
  dose excreted at 6 h: 2.1%
[13]; 6-24 hours
  dose excreted at 24 h: < 0.2%
In vivo
  NOAEL: ~5 mg/kg
K. pneumoniae A-9664 [14]
  MIC: 0.06 µg/mL (≈ 0.175 µM)
K. pneumoniae A20468
  MIC: 0.13 µg/mL (≈ 0.378 µM)
P. mirabilis A-9900 [15]
  MIC: 0.13 µg/mL (≈ 0.378 µM)
P. morganii A15153
  MIC: 0.06 µg/mL (≈ 0.175 µM)
S. marcescens A20019
  MIC: 0.06 µg/mL (≈ 0.175 µM)
E. cloacae A-9659 [16]
  MIC: 0.13 µg/mL (≈ 0.378 µM)
E. cloacae A-9656
  MIC: 0.13 µg/mL (≈ 0.378 µM)
B. fragilis A22053
  MIC: 0.06 µg/mL (≈ 0.175 µM)
B. fragilis A22863
  MIC: 0.06 µg/mL (≈ 0.175 µM)
[17]
  LD50: > 40 mg/kg
